Active and inactive are the calls of the source. No cut-off for these calls is given here.
How the values were obtained:
[1] = molecular target: T1, Tyrosyl-DNA phosphodiesterase 1 (Homo sapiens, UniProt Q9NUW8); test: Inhibition of Tdp1 (unknown origin) up to 40 uM incubated for 30 mins using 5'-/6-TAMN/AGGATCTAAAAGACTT/3BHQ_2/-3' substrate by microplate reader based assay
[2] = molecular target: T1, Tyrosyl-DNA phosphodiesterase 1; test: Inhibition of Tdp1 (unknown origin) incubated for 30 mins using 5'-/6-TAMN/AGGATCTAAAAGACTT/3BHQ_2/-3' substrate by microplate reader based assay

T1 sequence (Q9NUW8 whole entry): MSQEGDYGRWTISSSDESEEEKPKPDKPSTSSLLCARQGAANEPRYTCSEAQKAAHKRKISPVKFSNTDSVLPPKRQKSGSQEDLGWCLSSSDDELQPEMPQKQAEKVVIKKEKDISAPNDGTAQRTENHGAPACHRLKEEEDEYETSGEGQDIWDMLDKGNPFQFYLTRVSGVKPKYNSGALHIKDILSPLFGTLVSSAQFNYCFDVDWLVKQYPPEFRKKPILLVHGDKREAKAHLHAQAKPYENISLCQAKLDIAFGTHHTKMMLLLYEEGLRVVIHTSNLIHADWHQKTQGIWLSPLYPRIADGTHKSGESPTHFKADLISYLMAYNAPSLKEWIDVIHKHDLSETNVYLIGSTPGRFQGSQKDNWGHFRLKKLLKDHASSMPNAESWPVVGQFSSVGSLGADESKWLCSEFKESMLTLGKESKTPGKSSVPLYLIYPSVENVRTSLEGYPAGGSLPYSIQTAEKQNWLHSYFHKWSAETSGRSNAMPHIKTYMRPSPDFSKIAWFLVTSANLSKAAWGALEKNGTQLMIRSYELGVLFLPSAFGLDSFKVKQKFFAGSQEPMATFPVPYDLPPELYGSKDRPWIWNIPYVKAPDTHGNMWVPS

| Compound | inhibition [1] | IC50 [2] [nM] |
| --- | --- | --- |
| COc1cc(O[C@@H]2O[C@H](COC(=O)c3cc(O)c(O)c(O)c3)[C@@H](O)[C@H](O)[C@H]2O)cc(OC)c1OC | inactive | – |
| COc1cc(C[C@@H](CO)O[C@@H]2O[C@H](COC(=O)c3cc(O)c(O)c(O)c3)[C@@H](O)[C@H](O)[C@H]2O)ccc1O | – | 1000 |
| COc1ccc(O[C@@H]2O[C@H](COC(=O)c3cc(O)c(O)c(O)c3)[C@@H](O)[C@H](O)[C@H]2O)cc1OC | – | 1000 |

Second part, the molecule after the results:

| inhibition [1] | IC50 [2] [nM] | Compound |
| --- | --- | --- |
| inactive | – | COc1cc([C@@H]2O[C@H]3[C@H](O[C@H]2CO)O[C@H](COC(=O)c2cc(O)c(O)c(O)c2)[C@@H](O)[C@@H]3O)ccc1O |
| inactive | – | COc1cc([C@@H]2O[C@H]3[C@H](O[C@H]2COC(=O)c2cc(O)c(O)c(O)c2)O[C@H](CO)[C@@H](O)[C@@H]3O)ccc1O |

— ChEMBL document CHEMBL3588774, “Tyrosyl-DNA Phosphodiesterase I Inhibitors from the Australian Plant Macropteranthes leichhardtii” (J Nat Prod, 2015)
